Data: patent US20170333532A1, “ADP'ASE-ENHANCED APYRASE THERAPY FOR WOUNDS, MICROBIAL INFECTION, SEPSIS, AND HETEROTOPIC OSSIFICATION” (APT THERAPEUTICS, INC, priority 2014, published 2017)

What was measured:
E. coli strain K12 = test: Effect of colistin, Apyrase Agent and combinations on E. coli growth curve; format: cell-based
Procedure: The effect of colistin, Apyrase agent, and combinations thereof were examined on E. coli growth.
E. coli strain K12 was cultivated to a concentration of about 0.1 OD (A600 nm).
The effect of colistin on E. coli growth. Replicate cultures were cultivated in the presence of colistin (at a concentration of 0.25 μg/ml) and various amounts of additional Apyrase Agent buffer (Tris-biffered saline; 1, 3, 10, or 30 μL).
The effect of Apyrase Agent on E. coli growth. Replicate cultures were cultivated in the presence of Apyrase Agent at various concentrations (i.e. 1, 3, 10, or 30 U/ml).
The effect of a combination of colistin and Apyrase Agent on E. coli growth. Replicate cultures were cultivated in the presence of colistin (at a concentration of […]) combined with Apyrase Agent at various concentrations (namely 1, 3, 10, or 30 U/ml).

P. aeruginosa AU0584 = test: Killing of P. aeruginosa AU0584 by colistin with Apyrase Agent, CFU count; format: cell-based; conditions: colistin at less than 10 μg/ml, with Apyrase Agent 2 U/ml or alone
Procedure: (§1) In this Example (and in subsequent Examples), the colistin is colistin sulfate salt, catalog number C4461 from Sigma-Aldrich (St. Louis, Mo.) and the apyrase is catalog number M0393L from New England BioLabs Inc. (Ipswich, Mass.).
(§2) P. aeruginosa AU0584 is grown in the presence of combinations of 0 and 2 U/ml of Apyrase Agent and approximately 0 to 20 μg/ml of colistin. After incubation, the numbers of viable cells are determined by counting the colony forming units (CFU) on the plate (data provided as CFU/ml). Apyrase Agent improves the efficiency of killing P. aeruginosa AU0584 by colistin. Apyrase Agent increases the effectiveness of colistin at less than 10 μg/ml such that less than 10 to 100 CFU/ml are detected relative to greater than 10^3 to 10^4 in the presence of colistin alone at the same concentrations.

A. baumannii strain VBA9 = test: Killing of colistin-resistant A. baumannii VBA9 by colistin with Apyrase Agent, CFU count; format: cell-based; conditions: colistin at less than 10-15 μg/ml, with Apyrase Agent 2 U/ml or alone
Procedure: as §1
Approximately 10^5 to 10^6 CFU/ml of the colistin-resistant A. baumannii strain VBA9 is grown in the presence of combinations of 0 and 2 U/ml of Apyrase Agent and approximately 0 to 32 μg/ml of colistin. After incubation, the numbers of viable cells are determined by counting the colony forming units (CFU) on the plate (data provided as CFU/ml). Apyrase Agent improves the efficiency of killing A. baumannii strain VBA9 by colistin. Apyrase Agent increases the effectiveness of colistin at less than 10-15 μg/ml such that less than 10 to 100 CFU/ml are detected relative to greater than 10^6 to 10^7 in the presence of colistin alone.

A. baumannii DMCI = test: Mouse burn wound infection model, A. baumannii DMCI, six groups; format: in vivo; conditions: C57BL/6 mice, 24 hours after burn, colistin 4 μg/ml, treatment immediately after inoculation
Source text: An established mouse wound model is used for these tests. Female pathogen-free C57BL/6 mice (Harlan, Indianapolis, Ind.), 12 weeks old, weighing ˜20-25 grams are used in all experiments. The skin over the lumbrosacral and back region is clipped using a 35-W model 5-55E electrical clipper (Oyster-Golden A-S, Head no. 80, blade size 40) by using the method described by Ipaktchi et al. with slight modification. Two hundred microliters of 0.9% saline suspension of A. baumannii DMCI (I×10^6 cells/ml), which is a highly colistin resistant clinical strain, is used for wound infection experiments. Viable bacterial numbers are determined 24 hours after burn. The Student t-test is used for statistical analysis.
Experiments are carried out in six groups (I) a control group, which contains neither apyrase nor colistin; (2) potato apyrase group, which contains potato apyrase (I U/ml); (3) colistin group, which contains colistin (4 μg/ml); (4) potato apyrase and colistin group, (5) Apyrase Agent group, (6) Apyrase Agent and colistin group.
The treatment is applied immediately after inoculation. After 24 hours, the mice are given lethal IP injections of pentobarbital (150 mg/kg) and skin samples are collected using a scalpel and scissors.

[1] = tested on: Burkholderia cepacia GIIIb AU0055; test: Killing of Burkholderia cepacia GIIIb AU0055 by colistin with Apyrase Agent, CFU count; format: cell-based; conditions: colistin at less than 10 μg/ml, with Apyrase Agent 2 U/ml or alone
Procedure: as §1
as §2, with “Burkholderia cepacia GIIIb AU0055” for “P. aeruginosa AU0584”, “10^4” for “10^3”, “10^5” for “10^4”

[2] = tested on: P. aeruginosa strain AU1292; test: Killing of P. aeruginosa AU1292 by colistin with Apyrase Agent, CFU count; format: cell-based; conditions: colistin at less than 20 μg/ml, with Apyrase Agent 2 U/ml or alone
Procedure: as §1
as §2, with “P. aeruginosa strain AU1292 is grown” for “P. aeruginosa AU0584 is grown”, “P. aeruginosa strain AU1292 by colistin.” for “P. aeruginosa AU0584 by colistin.”, “less than 20 μg/ml such” for “less than 10 μg/ml such”, “greater than 10^4 to 10^5” for “greater than 10^3 to 10^4”, “10^4 to 10^5 in the” for “10^3 to 10^4 in the”

[3] = tested on: Burkholderia vietnamiensis AU 10214; test: Killing of Burkholderia vietnamiensis AU 10214 by colistin with Apyrase Agent, CFU count; format: cell-based; conditions: colistin at less than 20 μg/ml, with Apyrase Agent 2 U/ml or alone
Procedure: as §1
Burkholderia vietnamiensis AU 10214 is grown in the presence of combinations of 0 and 2 U/ml of Apyrase Agent and approximately 0 to 20 μg/ml of colistin. After incubation, the numbers of viable cells are determined by counting the colony forming units (CFU) on the plate (data provided as CFU/ml). Apyrase Agent improves the efficiency of killing Burkholderia vietnamiensis AU 10214 by colistin. Apyrase Agent increases the effectiveness of colistin at less than 20 μg/ml such that less than 10 to 100 CFU/ml are detected relative to greater than 10^5 to 10^6 in the presence of colistin alone at the same concentrations.

colistin sulfate salt
effect on E coli growth (E. coli strain K12; colistin 0.25 μg/ml plus Apyrase Agent buffer 1, 3, 10, or 30 μL, 24 hour period, FIG. 1): no effect | effect on E. coli growth (E. coli strain K12; colistin 0.25 mg/ml alone or combined with Apyrase Agent 1, 3, 10, or 30 U/ml, FIG. 3): negligible effect | numbers of viable cells (CFU) (P. aeruginosa AU0584): 10^3 to 10^4 CFU/ml | numbers of viable cells (CFU) (A. baumannii strain VBA9): 10^6 to 10^7 CFU/ml | viable bacteria number recovered from burn sites (A. baumannii DMCI): highest viable bacteria number | numbers of viable cells (CFU) [1]: 10^4 to 10^5 CFU/ml | numbers of viable cells (CFU) [2]: 10^4 to 10^5 CFU/ml | numbers of viable cells (CFU) [3]: 10^5 to 10^6 CFU/ml
